Assays:
Assay type in all cases: cell-based, human
A549 = test: MTT cytotoxicity assay, monolayer culture; details: exposure time 96 h, means ± SDs
Description: (§1) A549 (non‐small cell lung carcinoma), SW480 and HCT‐116 (both colon carcinoma) were kindly provided by Brigitte Marian, Institute of Cancer Research, Department of Medicine I, Medical University of Vienna, Austria. The cell line CH1/PA‐1 (ovarian teratocarcinoma) was kindly provided by Lloyd R. Kelland (CRC Centre for Cancer Therapeutics, Institute of Cancer Research, Sutton, UK). All cell culture media (including supplements) and reagents were obtained from Sigma–Aldrich, and all plasticware from StarLab, unless indicated otherwise.

CH1/PA‐1 [1] = test: MTT cytotoxicity assay, monolayer culture; details: CH1/PA‐1, MTT assay, exposure time 96 h, means ± SDs
Description: as §1

SW480 [2] = test: MTT cytotoxicity assay, monolayer culture; details: SW480, MTT assay, exposure time 96 h, means ± SDs
Description: as §1

CH1/PA‐1 [3] = test: Cell cycle distribution, flow cytometry with propidium iodide; details: for Cell cycle distribution G1, % / Cell cycle distribution G2/M, % / Cell cycle distribution S, %: 24 h, mean ± SD; for Relative change in cell cycle distribution G1, % / Relative change in cell cycle distribution G2/M, % / Relative change in cell cycle distribution S, %: difference to untreated control
Method: (§2) The influence of two ligands, as well as seven complexes on cell cycle distribution was tested in two of the cancer cell lines (SW480, CH1/PA‐1) by means of flow cytometry. The cell cycle distribution (G1, S, G2/M phase in %; Table S37) was investigated upon DNA staining with propidium iodide.
(§3) CH1/PA‐1 and SW480 cells were harvested by trypsinization, 8×10^4 and 1.2×10^5 cells per well were seeded into 12‐well plates, respectively. The cells were allowed to attach and resume proliferation for 24 h after the seeding. […] After continuous exposure for 24 h at 37 °C and under 5 % CO2, the cells were harvested by trypsinization and centrifuged at 300 g for 3 min. The cells were washed with PBS (1 mL) and resuspended in propidium iodine (PI) containing HSF buffer (600 μL; 0.1 % Triton X‐100, 0.1 % sodium citrate, 50 μg mL^−1 PI in PBS). After incubation overnight at 4 °C in the dark, 5×10^3 cells were measured by flow cytometry with a Millipore Guava easyCyte 8HT instrument (Luminex, USA). Data were evaluated by means of FlowJo software (Tree Star) using Watson Pragmatic algorithms.60 The fitting of the curve was chosen to keep the root mean square error between 1.0 and 2.0, alongside with good fitting visual model.

SW480 [4] = test: as above; details: for Cell cycle distribution G1, % / Cell cycle distribution G2/M, % / Cell cycle distribution S, %: 24 h, mean ± SD; for Relative change in cell cycle distribution G1, % / Relative change in cell cycle distribution G2/M, % / Relative change in cell cycle distribution S, %: difference to untreated control
Method: as §2, §3

Molecule | IC50 (A549) [nM] | IC50 (CH1/PA‐1 [1]) [nM] | IC50 (SW480 [2]) [nM] | Cell cycle distribution G1, % (CH1/PA‐1 [3]; CH1/PA-1, 2.5 µM) [%] | Cell cycle distribution S, % (CH1/PA‐1 [3]; CH1/PA-1, 2.5 µM) [%] | Relative change in cell cycle distribution G1, % (CH1/PA‐1 [3]; CH1/PA-1, 2.5 µM) [%] | Relative change in cell cycle distribution G2/M, % (CH1/PA‐1 [3]; CH1/PA-1, 2.5 µM) [%] | Relative change in cell cycle distribution S, % (CH1/PA‐1 [3]; CH1/PA-1, 2.5 µM) [%] | Cell cycle distribution G1, % (CH1/PA‐1 [3]; CH1/PA-1, 5 µM) [%] | Cell cycle distribution G2/M, % (CH1/PA‐1 [3]; CH1/PA-1, 5 µM) [%] | Cell cycle distribution S, % (CH1/PA‐1 [3]; CH1/PA-1, 5 µM) [%] | Relative change in cell cycle distribution G1, % (CH1/PA‐1 [3]; CH1/PA-1, 5 µM) [%] | Relative change in cell cycle distribution G2/M, % (CH1/PA‐1 [3]; CH1/PA-1, 5 µM) [%] | Relative change in cell cycle distribution S, % (CH1/PA‐1 [3]; CH1/PA-1, 5 µM) [%] | Cell cycle distribution G1, % (SW480 [4]; SW480, 2.5 µM) [%] | Cell cycle distribution G2/M, % (SW480 [4]; SW480, 2.5 µM) [%] | Cell cycle distribution S, % (SW480 [4]; SW480, 2.5 µM) [%] | Relative change in cell cycle distribution G1, % (SW480 [4]; SW480, 2.5 µM) [%] | Relative change in cell cycle distribution G2/M, % (SW480 [4]; SW480, 2.5 µM) [%] | Relative change in cell cycle distribution S, % (SW480 [4]; SW480, 2.5 µM) [%] | other results
CC1=C2[O][Rh+]([Cl])[S]=C2C=CN1c1cccc2ccccc12.Cc1c(C)c(C)[c-](C)c1C [Compound 5 d, Chlorido[1‐(naphthalene‐1‐yl)‐2‐methyl‐3‐oxo‐κO‐pyridine‐4(1H)‐thionato‐κS](η^5‐1,2,3,4,5‐pentamethylcyclopentadienyl)rhodium(III)] | 1300 ± 200 | 480 ± 60 | 1000 ± 100 | 38 ± 5 | 36 ± 7 | -2 | 3 | 0 | 39 ± 6 | 22 ± 5 | 40 ± 2 | -1 | -2 | 4 | 38 ± 12 | 22 ± 8 | 40 ± 3 | -10 | 3 | 7 | Cell cycle distribution G1, % (CH1/PA‐1 [3]; CH1/PA-1, 1.25 µM): 40 ± 10%; Cell cycle distribution G2/M, % (CH1/PA‐1 [3]; CH1/PA-1, 1.25 µM): 16 ± 9%; Cell cycle distribution S, % (CH1/PA‐1 [3]; CH1/PA-1, 1.25 µM): 44 ± 3%; Relative change in cell cycle distribution G1, % (CH1/PA‐1 [3]; CH1/PA-1, 1.25 µM): 0%; Relative change in cell cycle distribution G2/M, % (CH1/PA‐1 [3]; CH1/PA-1, 1.25 µM): -8%; Relative change in cell cycle distribution S, % (CH1/PA‐1 [3]; CH1/PA-1, 1.25 µM): 8%; Cell cycle distribution G2/M, % (CH1/PA‐1 [3]; CH1/PA-1, 2.5 µM): 27 ± 8%; Cell cycle distribution G1, % (SW480 [4]; SW480, 5 µM): 43 ± 10%; Cell cycle distribution G2/M, % (SW480 [4]; SW480, 5 µM): 20 ± 3%; Cell cycle distribution S, % (SW480 [4]; SW480, 5 µM): 37 ± 8%; Relative change in cell cycle distribution G1, % (SW480 [4]; SW480, 5 µM): -5%; Relative change in cell cycle distribution G2/M, % (SW480 [4]; SW480, 5 µM): 1%; Relative change in cell cycle distribution S, % (SW480 [4]; SW480, 5 µM): 4%; Cell cycle distribution G1, % (SW480 [4]; SW480, 10 µM): 48 ± 10%; Cell cycle distribution G2/M, % (SW480 [4]; SW480, 10 µM): 18 ± 1%; Cell cycle distribution S, % (SW480 [4]; SW480, 10 µM): 34 ± 9%; Relative change in cell cycle distribution G1, % (SW480 [4]; SW480, 10 µM): 0%; Relative change in cell cycle distribution G2/M, % (SW480 [4]; SW480, 10 µM): -1%; Relative change in cell cycle distribution S, % (SW480 [4]; SW480, 10 µM): 1%
Chlorido[1‐phenyl‐2‐methyl‐3‐oxo‐κO‐pyridine‐4(1H)‐thionato‐κS](η^5‐1,2,3,4,5‐pentamethylcyclopentadienyl)rhodium(III) [Compound 5 b] | 2000 ± 800 | 660 ± 80 | 670 ± 40 | 22 ± 2 | 43 ± 9 | -18 | 11 | 7 | 22 ± 6 | 41 ± 4 | 37 ± 5 | -18 | 17 | 1 | 37 ± 17 | 23 ± 7 | 40 ± 11 | -11 | 4 | 7 | Cell cycle distribution G1, % (CH1/PA‐1 [3]; CH1/PA-1, 10 µM): 19 ± 7%; Cell cycle distribution G2/M, % (CH1/PA‐1 [3]; CH1/PA-1, 10 µM): 39 ± 5%; Cell cycle distribution S, % (CH1/PA‐1 [3]; CH1/PA-1, 10 µM): 42 ± 1%; Relative change in cell cycle distribution G1, % (CH1/PA‐1 [3]; CH1/PA-1, 10 µM): -21%; Relative change in cell cycle distribution G2/M, % (CH1/PA‐1 [3]; CH1/PA-1, 10 µM): 15%; Relative change in cell cycle distribution S, % (CH1/PA‐1 [3]; CH1/PA-1, 10 µM): 6%; decrease in G1 phase (CH1/PA‐1 [3]; CH1/PA‐1 cells, 10 μM): more than 20%; Cell cycle distribution G1, % (SW480 [4]; SW480, 5 µM): 26 ± 13%; Cell cycle distribution G2/M, % (SW480 [4]; SW480, 5 µM): 27 ± 9%; Cell cycle distribution S, % (SW480 [4]; SW480, 5 µM): 48 ± 7%; Relative change in cell cycle distribution G1, % (SW480 [4]; SW480, 5 µM): -22%; Relative change in cell cycle distribution G2/M, % (SW480 [4]; SW480, 5 µM): 8%; Relative change in cell cycle distribution S, % (SW480 [4]; SW480, 5 µM): 15%; Cell cycle distribution G1, % (SW480 [4]; SW480, 10 µM): 34 ± 10%; Cell cycle distribution G2/M, % (SW480 [4]; SW480, 10 µM): 17 ± 6%; Cell cycle distribution S, % (SW480 [4]; SW480, 10 µM): 49 ± 8%; Relative change in cell cycle distribution G1, % (SW480 [4]; SW480, 10 µM): -14%; Relative change in cell cycle distribution G2/M, % (SW480 [4]; SW480, 10 µM): -2%; Relative change in cell cycle distribution S, % (SW480 [4]; SW480, 10 µM): 16%; G1 phase decrease (SW480 [4]; SW480 cells, 5 μM): more than 20%

Reference: article PMC7217150, “Synthesis, Modification, and Biological Evaluation of a Library of Novel Water‐Soluble Thiopyridone‐Based Organometallic Complexes and Their Unexpected (Biological) Behavior” (Chemistry (Weinheim an Der Bergstrasse, Germany), 2020)
